Measurements taken from US20260137677A1, “PROTACS USEFUL AGAINST THE MAIN PROTEASE SARS-COV-2” (Tocris Cookson Limited, priority 2022, published 2026).

Key:
[1] = tested on: SARS-CoV-2 (SARS-CoV2/ZG/297-20) in Vero E6 cells; test: microbe, parasite or virus in culture; type: cell-based; settings: for inhibition at 10 µM / inhibition at 50 µM: Severe acute respiratory syndrome coronavirus 2, Vero C1008, 72 h; for inhibition at 10 µM: read-out: Antiviral Activity 10 uM; for inhibition at 50 µM: read-out: Antiviral Activity 50 uM; for EC50: Severe acute respiratory syndrome coronavirus 2, Vero C1008, Vero E6 infected with SARS-CoV-2 at an MOI of 0.05, read-out: EC50 in antiviral assay
[2] = molecular target: T1, recombinant SARS-CoV-2 main protease (Mpro) (Severe acute respiratory syndrome coronavirus 2, UniProt P0DTD1); test: biochemical; settings: FRET assay, Mpro 50 nM, substrate 10 μM
T1 construct: the main protease (Mpro; also called 3CLpro) which has an essential role in processing the polyproteins

Row | SMILES | inhibition at 10 µM [1] | inhibition at 50 µM [1] | IC50 [2] | EC50 [1]
1 | O=C1CCC(N2C(=O)c3cc(F)c(N4CCN(C(=O)[C@H](NC(=O)[C@@H](c5cccnc5)N(C(=O)c5ccco5)c5ccc(-c6ccccc6)cc5)c5ccccc5)CC4)cc3C2=O)C(=O)N1 (single isomer, unassigned) [TS467] | < 25% | < 25% | < 100 nM | 
2 | O=C1CCC(N2C(=O)c3ccc(N4CCN(CC5CCN(C(=O)[C@H](NC(=O)[C@@H](c6cccnc6)N(C(=O)c6ccco6)c6ccc(-c7ccccc7)cc6)c6ccccc6)CC5)CC4)cc3C2=O)C(=O)N1 (single isomer, unassigned) [TS470] | < 25% | < 50% | < 100 nM | 
3 | O=C1CCC(N2C(=O)c3cc(F)c(N4CCN(CC5CCN(C(=O)[C@H](NC(=O)[C@@H](c6cccnc6)N(C(=O)c6ccco6)c6ccc(-c7ccccc7)cc6)c6ccccc6)CC5)CC4)cc3C2=O)C(=O)N1 (single isomer, unassigned) [TS471] | < 25% | < 25% | < 1000 nM | 
4 | O=C(COc1ccc(C2CCC(=O)NC2=O)cc1)NCCNC(=O)[C@H](NC(=O)[C@@H](c1cccnc1)N(C(=O)c1ccco1)c1ccc(-c2ccccc2)cc1)c1ccccc1 (single isomer, unassigned) [TS476] | < 0% | < 0% | < 100 nM | 
5 | O=C(COc1ccc(C2CCC(=O)NC2=O)cc1)NCCCCNC(=O)[C@H](NC(=O)[C@@H](c1cccnc1)N(C(=O)c1ccco1)c1ccc(-c2ccccc2)cc1)c1ccccc1 (single isomer, unassigned) [TS477] | < 0% | < 0% | < 100 nM | 
6 | O=C1CCC(N2C(=O)c3cccc(OCCCCCCC(=O)Nc4cccn([C@@H](CC5CC5)C(=O)N[C@@H](C[C@@H]5CCNC5=O)C(=O)C(=O)NCc5ccccc5)c4=O)c3C2=O)C(=O)N1 (some centres unmarked) [BT150] | < 25% | < 25% | < 1000 nM | 
7 | O=C1CCC(N2C(=O)c3cccc(OCCCCCCCC(=O)Nc4cccn([C@@H](CC5CC5)C(=O)N[C@@H](C[C@@H]5CCNC5=O)C(=O)C(=O)NCc5ccccc5)c4=O)c3C2=O)C(=O)N1 (some centres unmarked) [BT152] | < 25% | < 50% | < 1000 nM | 
8 | O=C1CCC(N2C(=O)c3cccc(OCCCCCCNC(=O)c4ccc5cncc(N6C(=O)NC7(CC(c8ccccc8Cl)C7)C6=O)c5c4)c3C2=O)C(=O)N1 (centres unmarked) [Compound C10778L, 4-(2-(2-chlorophenyl)-6,8-dioxo-5,7-diazaspiro[3.4]octan-7-yl)-N-(6-((2-(2,6-dioxopiperidin-3-yl)-1,3-dioxoisoindolin-4-yl)oxy)hexyl)isoquinoline-6-carboxamide] | < 25% | < 25% | < 100 nM | 
9 | O=C1CCC(N2C(=O)c3cccc(OCCNC(=O)c4ccc5cncc(N6C(=O)NC7(CC(c8ccccc8Cl)C7)C6=O)c5c4)c3C2=O)C(=O)N1 (centres unmarked) [Compound C10778P, 4-(2-(2-chlorophenyl)-6,8-dioxo-5,7-diazaspiro[3.4]octan-7-yl)-N-(2-((2-(2,6-dioxopiperidin-3-yl)-1,3-dioxoisoindolin-4-yl)oxy)ethyl)isoquinoline-6-carboxamide] | > 75% | > 75% | < 100 nM | 4900 nM
10 | O=C1CCC(N2C(=O)c3ccc(NCCCCCCNC(=O)c4ccc5cncc(N6C(=O)NC7(CC(c8ccccc8Cl)C7)C6=O)c5c4)cc3C2=O)C(=O)N1 (centres unmarked) [Compound C10778Q, 4-(2-(2-chlorophenyl)-6,8-dioxo-5,7-diazaspiro[3.4]octan-7-yl)-N-(6-((2-(2,6-dioxopiperidin-3-yl)-1,3-dioxoisoindolin-5-yl)amino)hexyl)isoquinoline-6-carboxamide] | < 0% | < 25% | < 1000 nM | 
11 | O=C(COc1ccc(C2CCC(=O)NC2=O)cc1)NCCCCCNC(=O)c1ccc2cncc(N3C(=O)NC4(CC(c5ccccc5Cl)C4)C3=O)c2c1 (centres unmarked) [Compound C10778R, 4-(2-(2-chlorophenyl)-6,8-dioxo-5,7-diazaspiro[3.4]octan-7-yl)-N-(5-(2-(4-(2,6-dioxopiperidin-3-yl)phenoxy)acetamido)pentyl)isoquinoline-6-carboxamide] | > 75% | > 75% | < 100 nM | 4900 nM
12 | O=C1CCC(N2C(=O)c3cccc(OCCOCCOCCOCCNC(=O)c4ccc5cncc(N6C(=O)NC7(CC(c8ccccc8Cl)C7)C6=O)c5c4)c3C2=O)C(=O)N1 (centres unmarked) [Compound C10778S, 4-(2-(2-chlorophenyl)-6,8-dioxo-5,7-diazaspiro[3.4]octan-7-yl)-N-(2-(2-(2-(2-((2-(2,6-dioxopiperidin-3-yl)-1,3-dioxoisoindolin-4-yl)oxy)ethoxy)ethoxy)ethoxy)ethyl)isoquinoline-6-carboxamide] | < 25% | > 75% | < 100 nM | 
13 | O=C1CCC(N2C(=O)c3cccc(OCCCCCCCCNC(=O)c4ccc5c(N6C(=O)NC7(CC(c8ccccc8Cl)C7)C6=O)cncc5c4)c3C2=O)C(=O)N1 (centres unmarked) [Compound C10778T, 4-(2-(2-chlorophenyl)-6,8-dioxo-5,7-diazaspiro[3.4]octan-7-yl)-N-(8-((2-(2,6-dioxopiperidin-3-yl)-1,3-dioxoisoindolin-4-yl)oxy)octyl)isoquinoline-7-carboxamide] | < 0% | < 0% | < 100 nM | 
14 | O=C1CCC(N2C(=O)c3cccc(OCCCCNC(=O)c4ccc5c(N6C(=O)NC7(CC(c8ccccc8Cl)C7)C6=O)cncc5c4)c3C2=O)C(=O)N1 (centres unmarked) [Compound C10778U, 4-(2-(2-chlorophenyl)-6,8-dioxo-5,7-diazaspiro[3.4]octan-7-yl)-N-(4-((2-(2,6-dioxopiperidin-3-yl)-1,3-dioxoisoindolin-4-yl)oxy)butyl)isoquinoline-7-carboxamide] | < 25% | < 25% | < 100 nM | 
15 | O=C1CCC(N2C(=O)c3cccc(OCCNC(=O)c4ccc5c(N6C(=O)NC7(CC(c8ccccc8Cl)C7)C6=O)cncc5c4)c3C2=O)C(=O)N1 (centres unmarked) [Compound C10778V, 4-(2-(2-chlorophenyl)-6,8-dioxo-5,7-diazaspiro[3.4]octan-7-yl)-N-(2-((2-(2,6-dioxopiperidin-3-yl)-1,3-dioxoisoindolin-4-yl)oxy)ethyl)isoquinoline-7-carboxamide] | < 25% | < 25% | < 100 nM | 
16 | O=C1CCC(N2C(=O)c3ccc(NCCCCCCNC(=O)c4ccc5c(N6C(=O)NC7(CC(c8ccccc8Cl)C7)C6=O)cncc5c4)cc3C2=O)C(=O)N1 (centres unmarked) [Compound C10778W, 4-(2-(2-chlorophenyl)-6,8-dioxo-5,7-diazaspiro[3.4]octan-7-yl)-N-(6-((2-(2,6-dioxopiperidin-3-yl)-1,3-dioxoisoindolin-5-yl)amino)hexyl)isoquinoline-7-carboxamide] | < 0% | < 0% | < 1000 nM | 
17 | O=C(COc1ccc(C2CCC(=O)NC2=O)cc1)NCCCCCNC(=O)c1ccc2c(N3C(=O)NC4(CC(c5ccccc5Cl)C4)C3=O)cncc2c1 (centres unmarked) [Compound C10778X, 4-(2-(2-chlorophenyl)-6,8-dioxo-5,7-diazaspiro[3.4]octan-7-yl)-N-(5-(2-(4-(2,6-dioxopiperidin-3-yl)phenoxy)acetamido)pentyl)isoquinoline-7-carboxamide] | < 0% | < 0% | < 100 nM | 
18 | O=C1CCC(N2C(=O)c3cccc(OCCOCCOCCOCCNC(=O)c4ccc5c(N6C(=O)NC7(CC(c8ccccc8Cl)C7)C6=O)cncc5c4)c3C2=O)C(=O)N1 (centres unmarked) [Compound C10778Y, 4-(2-(2-chlorophenyl)-6,8-dioxo-5,7-diazaspiro[3.4]octan-7-yl)-N-(2-(2-(2-(2-((2-(2,6-dioxopiperidin-3-yl)-1,3-dioxoisoindolin-4-yl)oxy)ethoxy)ethoxy)ethoxy)ethyl)isoquinoline-7-carboxamide] | < 25% | < 50% | < 100 nM | 
19 | O=C1CCC(N2C(=O)c3cccc(OCCCCNC(=O)c4ccc5cncc(N6C(=O)NC7(CC(c8ccccc8Cl)C7)C6=O)c5c4)c3C2=O)C(=O)N1 (centres unmarked) [Compound C107780, 4-(2-(2-chlorophenyl)-6,8-dioxo-5,7-diazaspiro[3.4]octan-7-yl)-N-(4-((2-(2,6-dioxopiperidin-3-yl)-1,3-dioxoisoindolin-4-yl)oxy)butyl)isoquinoline-6-carboxamide] | < 25% | > 75% | < 100 nM | 
20 | O=C1CCC(N2C(=O)c3cccc(NCCCNC(=O)[C@@H](NC(=O)C(c4cccnc4)N(C(=O)c4ccco4)c4ccc5c(c4)oc4ccccc45)c4ccccc4)c3C2=O)C(=O)N1 (some centres unmarked) [TS284F2] | < 0% | < 0% | < 10000 nM | 
21 | O=C1CCC(N2C(=O)c3cccc(NCCCCCCNC(=O)[C@@H](NC(=O)C(c4cccnc4)N(C(=O)c4ccco4)c4ccc5c(c4)oc4ccccc45)c4ccccc4)c3C2=O)C(=O)N1 (some centres unmarked) [TS296] | < 0% | < 0% | > 25000 nM | 
